Columns and labels:
D. radicum = test: Fibers+optical brightener/cabbage maggot field-cage experiment; type: in vivo, Delia radicum; details: rate 0.033 kg ai/100-m row
From the text: Fibers+optical brightener/cabbage maggot field-cage experiment. Optical (fluorescent) brighteners are widely used in paints, fabrics, plastics and detergents, wherein they enhance the apparent brightness of the material by absorbing UV radiation and emitting light in the blue visual spectrum (Martinez et al. 2000). These brighteners were feasible to use with our existing technology and could potentially increase fiber effectiveness. Thus in mid-May 2000, we tested the efficacy of optical brighteners added to EVA fibers against cabbage maggots in four large (3.7×3.7×1.8-m) Lumite® field cages. The experiment was a randomized complete block design with four replicates (cages).
Within each cage, six rows (3-m long) were formed about 0.3-m apart by hand plowing. Greenhouse-grown two-leaf stage broccoli cv ‘Southern Comet’ was transplanted into the 6 rows within each cage at a plant spacing of 15 cm. One row of broccoli represented a single treatment within each cage. […]
On May 21 , approximately 175 D. radicum pupae were released into each of the four cages and 10% sucrose solution was provided as a food source for emerging adults. […] Total number of larvae and pupae per plant was recorded.

Silverleaf Whiteflies = test: Greenhouse no choice oviposition of whiteflies on squash; type: in vivo, Bemisia argentifolii; details: spun sucrose trial
Procedure: Whiteflies were tested with a “No Choice” protocol using single treated and untreated summer squash plants var. “Seneca.” Two liter, polyethylene soda container arenas holding a single squash plant in a potting soil mixture were used for whitefly studies. Ten mating pairs of whiteflies were introduced into each arena for all studies. Up to forty arenas, depending on the treatment parameters of a given trial, were run simultaneously under identical ambient conditions. Ambient temperature and time of day were tracked during greenhouse trials. […] Counts were made using a binocular dissecting scope. […] While EVA, graphite and PVA fibers were relatively stable in greenhouse studies, the sucrose fibers were quickly degraded by moisture and formed a sugar coating of the leafs surface with numerous raised and stable sugar droplets. This was an expected result and the efficacy of this fiber application was worthy of testing.

Structure (SMILES)	D. radicum larvae per 3-m row of broccoli (D. radicum)	Total # of eggs (total mean number of eggs/plant) (Silverleaf Whiteflies)	Total # of eggs (total mean number of eggs/plant) (Silverleaf Whiteflies; listed as sucrose)
CCOP(=S)(OCC)Oc1nc(Cl)c(Cl)cc1Cl [Chlorpyrifos drench, chlorpyrifos]	6.0 ± 2.3	–	–
OC[C@H]1O[C@@](CO)(O[C@H]2O[C@H](CO)[C@@H](O)[C@H](O)[C@H]2O)[C@@H](O)[C@@H]1O [Sugar, sucrose]	–	5.867	5.87±1.96

Source: patent US20030198659A1, “Fibrous pest control” (priority 2001, published 2003)
